Experimental data as given in BigSolDB 2.1.

O=C(O)COc1ccc(Cl)cc1
solubility (mole fraction)
Details	283.15 K	288.15 K	293.15 K	298.15 K	303.15 K	308.15 K	313.15 K	318.15 K	323.15 K
in 1,4-dioxane	–	0.113	0.124	0.135	0.146	0.16	0.176	0.194	0.212
in acetonitrile	0.00781	0.00938	0.0114	0.0134	0.0159	0.0198	0.0241	0.0298	0.0359
in ethanol	0.0308	0.0347	0.0406	0.0472	0.0545	0.0643	0.0796	0.0962	0.114
in ethyl acetate	0.0266	0.0303	0.036	0.0413	0.0468	0.0537	0.0637	0.0731	0.0827
in ethyl formate	0.0139	0.0164	0.0193	0.0223	0.0254	0.0299	0.036	0.0423	0.0487
in isobutanol	0.0146	0.0178	0.0224	0.0286	0.0365	0.0453	0.0558	0.0688	0.0843
in isopropanol	0.0214	0.0267	0.0324	0.039	0.0476	0.0586	0.0703	0.0844	0.0997
in methyl acetate	0.0285	0.0325	0.0379	0.0433	0.0496	0.0567	0.0659	0.0766	0.0882
in n-butanol	0.0243	0.0282	0.0343	0.0415	0.0501	0.0604	0.0721	0.0855	0.101
in n-butyl acetate	0.0218	0.0246	0.0289	0.0334	0.0387	0.0446	0.0514	0.0593	0.0682
in n-propanol	0.0255	0.0292	0.0348	0.0415	0.0506	0.0618	0.0748	0.089	0.11
in n-propyl acetate	0.0235	0.0268	0.0303	0.035	0.0398	0.0454	0.0524	0.0604	0.0698
in sec-butanol	0.0224	0.0279	0.034	0.0413	0.0505	0.0617	0.0745	0.0888	0.107
